Laboratory results taken from ChEMBL document CHEMBL1201862, “PubChem BioAssay data set” (2004).
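Interpolation was linear, between the two tested concentrations surrounding the appropriate level; five concentrations were tested over 48 hours in 96-well plates. Here, GI50 denotes the concentration required for 50% inhibition of growth.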 Calls of active or inactive are those of the source. Rule as the data show it: active = GI50 up to about 1.1 µM and inactive = higher.

Legend:
Assay in all cases: inhibition of tumour cell growth, NCI panel, 48 h
OVCAR-8 = tested on: OVCAR-8
RPMI-8226 = tested on: RPMI-8226
CCRF-CEM = tested on: CCRF-CEM
HCT-15 = tested on: HCT-15
UACC-62 = tested on: UACC-62
M14 = tested on: M14
Hs-578T = tested on: Hs-578T
SF-268 = tested on: SF-268
OVCAR-4 = tested on: OVCAR-4
EKVX = tested on: EKVX
NCI/ADR-RES = tested on: NCI/ADR-RES
HCT-116 = tested on: HCT-116
HL-60 = tested on: HL-60
SNB-75 = tested on: SNB-75
ACHN = tested on: ACHN
T47D = tested on: T47D
SK-MEL-2 = tested on: SK-MEL-2
RXF 393 = tested on: RXF 393
K562 = tested on: K562
LOX IMVI = tested on: LOX IMVI

| Structure (SMILES) | GI50 (OVCAR-8) | GI50 (RPMI-8226) | GI50 (CCRF-CEM) | GI50 (HCT-15) [µM] | GI50 (UACC-62) | GI50 (M14) | GI50 (Hs-578T) | GI50 (SF-268) | GI50 (OVCAR-4) | GI50 (EKVX) | GI50 (NCI/ADR-RES) | GI50 (HCT-116) | GI50 (HL-60) | GI50 (SNB-75) | GI50 (ACHN) | GI50 (T47D) | GI50 (SK-MEL-2) | GI50 (RXF 393) | GI50 (K562) | GI50 (LOX IMVI) |
| --- | --- | --- | --- | --- | --- | --- | --- | --- | --- | --- | --- | --- | --- | --- | --- | --- | --- | --- | --- | --- |
| Cc1nc(-c2cccnc2)sc1C(=O)CC(=O)C(=O)Nc1cccc(NC(=O)C(=O)CC(=O)c2sc(-c3cccnc3)nc2C)n1 | > 100 µM (inactive) | > 100 µM (inactive) | > 100 µM (inactive) | > 100 | > 100 µM (inactive) | > 100 µM (inactive) | > 100 µM (inactive) | > 100 µM (inactive) | > 100 µM (inactive) | > 100 µM (inactive) | > 100 µM (inactive) | > 100 µM (inactive) | > 100 µM (inactive) | 68.5 µM (inactive) | > 100 µM (inactive) | > 100 µM (inactive) | > 100 µM (inactive) | > 100 µM (inactive) | > 100 µM (inactive) | > 100 µM (inactive) |
| COc1cccc(-c2cc(=O)c3ccccc3o2)c1N | 53 µM (inactive) | > 76.6 µM (inactive) | > 100 µM (inactive) | > 100 | 5.27 µM (inactive) | 5.56 µM (inactive) | 71.9 µM (inactive) | 61.2 µM (inactive) | 84.3 µM (inactive) | 16.2 µM (inactive) | 33 µM (inactive) | 52 µM (inactive) | 6.76 µM (inactive) | 51.6 µM (inactive) | > 100 µM (inactive) | 11.9 µM (inactive) | 27.4 µM (inactive) | 45 µM (inactive) | > 75.3 µM (inactive) | > 100 µM (inactive) |
| O=c1cc(N2CCOCC2)oc2c(-c3ccccc3)cccc12 [LY-294002] | 4.58 µM (inactive) | 2.96 µM (inactive) | 39.1 µM (inactive) | 7.91 | 3.79 µM (inactive) | 11.1 µM (inactive) | 1.9 µM (inactive) | 2.28 µM (inactive) | 2.7 µM (inactive) | 3.49 µM (inactive) | 4.76 µM (inactive) | 12.6 µM (inactive) | 14.7 µM (inactive) | 1.11 µM (active) | 7.45 µM (inactive) | 2.49 µM (inactive) | 9.93 µM (inactive) | 2.77 µM (inactive) | 14.2 µM (inactive) | 3.72 µM (inactive) |
| C=CCn1c(N)c(C#N)c(C#N)c1-c1ccccc1 | > 100 µM (inactive) | > 100 µM (inactive) | > 100 µM (inactive) | > 100 | > 100 µM (inactive) | > 100 µM (inactive) | > 100 µM (inactive) | > 100 µM (inactive) | > 100 µM (inactive) | 57.7 µM (inactive) | > 100 µM (inactive) | – | > 100 µM (inactive) | 26.2 µM (inactive) | > 100 µM (inactive) | > 100 µM (inactive) | 26.8 µM (inactive) | > 100 µM (inactive) | > 100 µM (inactive) | > 100 µM (inactive) |
| CCCCCCc1cc2cc(-c3cn4ccsc4n3)c(=O)oc2cc1O | > 53.3 µM (inactive) | 98.9 µM (inactive) | > 68.5 µM (inactive) | > 90.4 | 19.1 µM (inactive) | – | 20.4 µM (inactive) | > 58.2 µM (inactive) | > 79.6 µM (inactive) | > 77.6 µM (inactive) | > 100 µM (inactive) | > 67.6 µM (inactive) | > 100 µM (inactive) | 8.15 µM (inactive) | > 100 µM (inactive) | > 100 µM (inactive) | > 100 µM (inactive) | 29.3 µM (inactive) | > 75.2 µM (inactive) | > 100 µM (inactive) |
| Cc1c2ncccc2cc2oc3ccccc3c(=O)c12 | 80.2 µM (inactive) | > 100 µM (inactive) | 16 µM (inactive) | 41.8 | 50 µM (inactive) | – | > 100 µM (inactive) | 41.7 µM (inactive) | 35.8 µM (inactive) | 11.1 µM (inactive) | 21.4 µM (inactive) | 31.3 µM (inactive) | 34 µM (inactive) | > 100 µM (inactive) | 21.9 µM (inactive) | 18.1 µM (inactive) | > 100 µM (inactive) | 61.4 µM (inactive) | 24.9 µM (inactive) | 11.1 µM (inactive) |
| CN(Nc1cc(=O)[nH]c(=O)[nH]1)c1ccccc1 | > 100 µM (inactive) | > 100 µM (inactive) | > 100 µM (inactive) | – | > 100 µM (inactive) | > 100 µM (inactive) | 52 µM (inactive) | > 100 µM (inactive) | > 100 µM (inactive) | > 100 µM (inactive) | > 100 µM (inactive) | > 100 µM (inactive) | > 100 µM (inactive) | 58.9 µM (inactive) | > 100 µM (inactive) | > 100 µM (inactive) | > 100 µM (inactive) | > 100 µM (inactive) | > 100 µM (inactive) | > 100 µM (inactive) |
| O=[N+]([O-])c1ccc2nc(Nc3ccccc3)c(Nc3ccccc3)nc2c1 | 1.03 µM (active) | 2.61 µM (inactive) | 0.875 µM (active) | 0.753 | 1.02 µM (active) | – | 2.65 µM (inactive) | 1.62 µM (inactive) | 2.87 µM (inactive) | 1.82 µM (inactive) | 1.46 µM (inactive) | 0.555 µM (active) | 9.31 µM (inactive) | 2 µM (inactive) | 0.681 µM (active) | 2.63 µM (inactive) | 2.15 µM (inactive) | 2.57 µM (inactive) | 2.04 µM (inactive) | 1.58 µM (inactive) |
| CCOC(=O)c1cc2c3c(c(C(C)=O)c(O)c2[nH]1)N(C(C)=O)CC3 | 38.1 µM (inactive) | 19.3 µM (inactive) | 46 µM (inactive) | 49.7 | 81.3 µM (inactive) | 76.6 µM (inactive) | 51.9 µM (inactive) | 55.8 µM (inactive) | – | 61 µM (inactive) | 29.9 µM (inactive) | 68.4 µM (inactive) | 76.2 µM (inactive) | > 100 µM (inactive) | 27.5 µM (inactive) | 46.7 µM (inactive) | > 100 µM (inactive) | 21.7 µM (inactive) | 26.9 µM (inactive) | > 100 µM (inactive) |
| CN(C)c1ccc(/C=C(/NC(=O)c2ccccc2)C(=O)Nc2ccccc2C(=O)O)cc1 | > 100 µM (inactive) | > 100 µM (inactive) | > 100 µM (inactive) | > 100 | > 100 µM (inactive) | > 100 µM (inactive) | > 100 µM (inactive) | > 100 µM (inactive) | – | > 100 µM (inactive) | > 100 µM (inactive) | > 100 µM (inactive) | > 100 µM (inactive) | > 100 µM (inactive) | > 100 µM (inactive) | > 100 µM (inactive) | > 100 µM (inactive) | > 100 µM (inactive) | > 100 µM (inactive) | > 100 µM (inactive) |
| COC(=O)c1ccccc1CC(Cc1ccc2c(c1)CCC2)C(=O)OC (configuration not stated) | > 100 µM (inactive) | > 100 µM (inactive) | 47.3 µM (inactive) | > 100 | – | > 100 µM (inactive) | > 100 µM (inactive) | > 100 µM (inactive) | > 100 µM (inactive) | > 100 µM (inactive) | > 100 µM (inactive) | 49.1 µM (inactive) | 45.9 µM (inactive) | 98.4 µM (inactive) | > 100 µM (inactive) | > 100 µM (inactive) | > 100 µM (inactive) | > 100 µM (inactive) | 95.1 µM (inactive) | > 100 µM (inactive) |
